Laboratory results published in patent US9694016B2 (Novartis AG, priority 2013, dated 2017).

target: b-Raf (V600E) (Homo sapiens (Human), UniProt P15056, V600E); conditions: read-out: b-Raf IC-50; AlphaScreen, 60 min pre-incubation, 3 hours reaction
Sequence (P15056 whole entry V600E): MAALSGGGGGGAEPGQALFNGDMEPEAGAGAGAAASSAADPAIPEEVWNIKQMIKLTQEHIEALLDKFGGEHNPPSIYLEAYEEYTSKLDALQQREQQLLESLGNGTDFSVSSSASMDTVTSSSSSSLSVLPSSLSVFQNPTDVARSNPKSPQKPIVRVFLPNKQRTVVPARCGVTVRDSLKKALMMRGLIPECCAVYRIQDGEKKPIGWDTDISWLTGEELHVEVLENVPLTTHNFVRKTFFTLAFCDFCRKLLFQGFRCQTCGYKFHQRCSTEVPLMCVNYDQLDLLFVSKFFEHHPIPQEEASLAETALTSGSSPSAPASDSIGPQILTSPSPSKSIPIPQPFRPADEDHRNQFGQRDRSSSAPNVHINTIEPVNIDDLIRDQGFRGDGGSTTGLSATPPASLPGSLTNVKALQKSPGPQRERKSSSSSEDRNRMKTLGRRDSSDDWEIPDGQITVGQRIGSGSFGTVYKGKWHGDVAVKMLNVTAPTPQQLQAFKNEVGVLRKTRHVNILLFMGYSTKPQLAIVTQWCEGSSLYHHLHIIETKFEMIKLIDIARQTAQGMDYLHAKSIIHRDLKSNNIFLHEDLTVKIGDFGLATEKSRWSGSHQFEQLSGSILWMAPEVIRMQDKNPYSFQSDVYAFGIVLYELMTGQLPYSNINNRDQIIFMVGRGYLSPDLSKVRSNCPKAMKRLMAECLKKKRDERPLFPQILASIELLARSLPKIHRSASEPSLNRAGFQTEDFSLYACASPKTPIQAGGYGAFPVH

Compared with `CCn1cc(C(=O)Nc2ccc(C)c(-c3cc(N4CCOCC4)c(=O)n(C)n3)c2)cc(C(F)(F)F)c1=O` [Example 641, 1-ethyl-N-(4-methyl-3-(1-methyl-5-morpholino-6-oxo-1,6-dihydropyridazin-3-yl)phenyl)-6-oxo-5-(trifluoromethyl)-1,6-dihydropyridine-3-carboxamide], `Cc1ccc(NC(=O)c2cnnc(C(F)(F)F)c2)cc1-c1cc(N2CCOCC2)c(=O)n(C)n1` [Example 647, N-(4-methyl-3-(1-methyl-5-morpholino-6-oxo-1,6-dihydropyridazin-3-yl)phenyl)-6-(trifluoromethyl)pyridazine-4-carboxamide] is 2-fold higher in IC50: 2.7 nM for the first, 5.3 nM for the second. The first is the more potent here.

`CCc1cc(C(=O)Nc2ccc(C)c(-c3cc(N4CCOCC4)c(=O)n(C)n3)c2)ccn1` [Example 642, 2-ethyl-N-(4-methyl-3-(1-methyl-5-morpholino-6-oxo-1,6-dihydropyridazin-3-yl)phenyl)isonicotinamide] and `CCC(F)(F)c1cc(C(=O)Nc2ccc(C)c(-c3cc(N4CCOCC4)c(=O)n(C)n3)c2)ccn1` [Example 643, 2-(1,1-difluoropropyl)-N-(4-methyl-3-(1-methyl-5-morpholino-6-oxo-1,6-dihydropyridazin-3-yl)phenyl)isonicotinamide] are within 1.5-fold of each other in IC50: 1.4 nM for the first, 1.3 nM for the second.

Going from `Cc1ccc(NC(=O)c2cnnc(C3CC3)c2)cc1-c1cc(N2CCOCC2)c(=O)n(C)n1` [Example 644, 6-cyclopropyl-N-(4-methyl-3-(1-methyl-5-morpholino-6-oxo-1,6-dihydropyridazin-3-yl)-phenyl)pyridazine-4-carboxamide] to `Cc1ccc(NC(=O)c2cnnc(C(C)(C)C#N)c2)cc1-c1cc(N2CCOCC2)c(=O)n(C)n1` [Example 646, 6-(2-cyanopropan-2-yl)-N-(4-methyl-3-(1-methyl-5-morpholino-6-oxo-1,6-dihydropyridazin-3-yl)phenyl)pyridazine-4-carboxamide], the IC50 rises from 2.9 nM to 8.4 nM (2.9-fold).

First: Cc1ncc(NC(=O)c2ccnc(C(C)(C)C#N)c2)cc1-c1cc(N2CCOCC2)c(=O)n(C)n1 [Example 645, 2-(2-cyanopropan-2-yl)-N-(6-methyl-5-(1-methyl-5-morpholino-6-oxo-1,6-dihydropyridazin-3-yl)pyridin-3-yl)isonicotinamide]
Second: Cc1ccc(NC(=O)c2ccnc(C(C)(C)F)c2)cc1-c1cc(N2CCOCC2)c(=O)n(C)n1 [Example 654, 2-(2-fluoropropan-2-yl)-N-(4-methyl-3-(1-methyl-5-morpholino-6-oxo-1,6-dihydropyridazin-3-yl)phenyl)isonicotinamide]
The IC50 of the first is 31-fold higher: 53.4 nM for the first, 1.7 nM for the second. The second is the more potent here.

First: Cc1ccc(NC(=O)c2ccnc(C3COC3)c2)cc1-c1cc(N2CCOCC2)c(=O)n(C)n1 [Example 648, N-(4-methyl-3-(1-methyl-5-morpholino-6-oxo-1,6-dihydropyridazin-3-yl)phenyl)-2-(oxetan-3-yl)isonicotinamide]
Second: Cc1ccc(NC(=O)c2ccnc(C3(C#N)CC3)c2)cc1-c1cc(N2CCOCC2)c(=O)n(C)n1 [Example 659, 2-(1-cyanocyclopropyl)-N-(4-methyl-3-(1-methyl-5-morpholino-6-oxo-1,6-dihydropyridazin-3-yl)phenyl)isonicotinamide]
The IC50 of the first is 6.4-fold higher: 4.5 nM for the first, 0.7 nM for the second.

`CCN1CCN(c2cc(C(=O)Nc3ccc(C)c(-c4cc(N5CCOCC5)c(=O)n(C)n4)c3)cc(C(F)(F)F)c2)CC1` [Example 649, 3-(4-ethylpiperazin-1-yl)-N-(4-methyl-3-(1-methyl-5-morpholino-6-oxo-1,6-dihydropyridazin-3-yl)phenyl)-5-(trifluoromethyl)benzamide] and `Cc1ccc(NC(=O)c2cc(CN(C)C)cc(C(F)(F)F)c2)cc1-c1cc(N2CCOCC2)c(=O)n(C)n1` [Example 661, 3-((dimethylamino)methyl)-N-(4-methyl-3-(1-methyl-5-morpholino-6-oxo-1,6-dihydropyridazin-3-yl)phenyl)-5-(trifluoromethyl)benzamide] are within 1.5-fold of each other in IC50: 4.6 nM for the first, 4.3 nM for the second.

First: Cc1ccc(NC(=O)c2cccc(CC#N)c2)cc1-c1cc(N2CCOCC2)c(=O)n(C)n1 [Example 652, 3-(cyanomethyl)-N-(4-methyl-3-(1-methyl-5-morpholino-6-oxo-1,6-dihydropyridazin-3-yl)phenyl)benzamide]
Second: Cc1ccc(NC(=O)c2cccc(C(F)F)c2)cc1-c1cc(N2CCOCC2)c(=O)n(C)n1 [Example 655, 3-(difluoromethyl)-N-(4-methyl-3-(1-methyl-5-morpholino-6-oxo-1,6-dihydropyridazin-3-yl)phenyl)benzamide]
The IC50 of the first is 3-fold higher: 6.7 nM for the first, 2.2 nM for the second. The second is the more potent here.

Going from `Cc1ccc(NC(=O)c2ccnc(C(C)(F)F)c2)cc1-c1cc(N2CCOCC2)c(=O)n(C)n1` [Example 657, 2-(1,1-difluoroethyl)-N-(4-methyl-3-(1-methyl-5-morpholino-6-oxo-1,6-dihydropyridazin-3-yl)phenyl)isonicotinamide] to `Cc1ccc(NC(=O)c2ccnc(C(F)(F)F)c2)cc1-c1cc(N2CCOCC2)c(=O)n(C)n1` [Example 658, N-(4-methyl-3-(1-methyl-5-morpholino-6-oxo-1,6-dihydropyridazin-3-yl)phenyl)-2-(trifluoromethyl)isonicotinamide], the IC50 rises from 1.1 nM to 3.1 nM (2.8-fold). The first is the more potent here.

Compared with `Cc1ccc(NC(=O)c2ccnc(C(C)(C)F)c2)cc1-c1cc(N2CCOC[C@@H]2C)c(=O)n(C)n1` [Example 662, (S)-2-(2-fluoropropan-2-yl)-N-(4-methyl-3-(1-methyl-5-(3-methylmorpholino)-6-oxo-1,6-dihydropyridazin-3-yl)phenyl)isonicotinamide], `Cc1ccc(NC(=O)c2ccnc(C(C)(C)F)c2)cc1-c1cc(N2CCOC[C@H]2C)c(=O)n(C)n1` [Example 673, (R)-2-(2-fluoropropan-2-yl)-N-(4-methyl-3-(1-methyl-5-(3-methylmorpholino)-6-oxo-1,6-dihydropyridazin-3-yl)phenyl)isonicotinamide] is 1.6-fold higher in IC50: 3.9 nM for the first, 6.3 nM for the second.

Going from `Cc1ccc(NC(=O)c2ccnc(C(C)(C)C#N)c2)cc1-c1cc(N2CCOC[C@@H]2C)c(=O)n(C)n1` [Example 663, (S)-2-(2-cyanopropan-2-yl)-N-(4-methyl-3-(1-methyl-5-(3-methylmorpholino)-6-oxo-1,6-dihydropyridazin-3-yl)phenyl)isonicotinamide] to `Cc1ccc(NC(=O)c2ccnc(C(C)(C)C#N)c2)cc1-c1cc(N2CCOC[C@H]2C)c(=O)n(C)n1` [Example 672, (R)-2-(2-cyanopropan-2-yl)-N-(4-methyl-3-(1-methyl-5-(3-methylmorpholino)-6-oxo-1,6-dihydropyridazin-3-yl)phenyl)isonicotinamide], the IC50 rises from 9.2 nM to 15.8 nM (1.7-fold). The first is the more potent here.

`Cc1ccc(NC(=O)c2ccnc(C(C)(F)F)c2)cc1-c1cc(N2CCOC[C@@H]2C)c(=O)n(C)n1` [Example 664, (S)-2-(1,1-difluoroethyl)-N-(4-methyl-3-(1-methyl-5-(3-methylmorpholino)-6-oxo-1,6-dihydropyridazin-3-yl)phenyl)isonicotinamide] and `Cc1ccc(NC(=O)c2ccnc(C(C)(F)F)c2)cc1-c1cc(N2CCOC[C@H]2C)c(=O)n(C)n1` [Example 674, (R)-2-(1,1-difluoroethyl)-N-(4-methyl-3-(1-methyl-5-(3-methylmorpholino)-6-oxo-1,6-dihydropyridazin-3-yl)phenyl)isonicotinamide] are within 1.5-fold of each other in IC50: 2.9 nM for the first, 3.7 nM for the second.

First: Cc1ccc(NC(=O)c2ccnc(C(C)(C)F)c2)cc1-c1cc(N2CCOC(C)(C)C2)c(=O)n(C)n1 [Example 665, N-(3-(5-(2,2-dimethylmorpholino)-1-methyl-6-oxo-1,6-dihydropyridazin-3-yl)-4-methylphenyl)-2-(2-fluoropropan-2-yl)isonicotinamide]
Second: Cc1ccc(NC(=O)c2ccnc(C(C)(F)F)c2)cc1-c1cc(N2CCOC(C)(C)C2)c(=O)n(C)n1 [Example 667, 2-(1,1-difluoroethyl)-N-(3-(5-(2,2-dimethylmorpholino)-1-methyl-6-oxo-1,6-dihydropyridazin-3-yl)-4-methylphenyl)isonicotinamide]
The IC50 of the first is 2-fold higher: 6.7 nM for the first, 3.4 nM for the second.

Going from `Cc1ccc(NC(=O)c2ccnc(C(C)(C)C#N)c2)cc1-c1cc(N2CCOC(C)(C)C2)c(=O)n(C)n1` [Example 666, 2-(2-cyanopropan-2-yl)-N-(3-(5-(2,2-dimethylmorpholino)-1-methyl-6-oxo-1,6-dihydropyridazin-3-yl)-4-methylphenyl)isonicotinamide] to `Cc1ccc(NC(=O)c2ccnc(C(C)(C)C#N)c2)cc1-c1cc(N2CCOCC2(C)C)c(=O)n(C)n1` [Example 671, 2-(2-cyanopropan-2-yl)-N-(3-(5-(3,3-dimethylmorpholino)-1-methyl-6-oxo-1,6-dihydropyridazin-3-yl)-4-methylphenyl)isonicotinamide], the IC50 rises from 7.8 nM to 25.5 nM (3.3-fold). The first is the more potent here.

`Cc1ccc(NC(=O)c2ccnc(C(C)(C)F)c2)cc1-c1cc(N2C3CCC2COC3)c(=O)n(C)n1` [Example 668, N-(3-(5-(3-oxa-8-azabicyclo[3.2.1]octan-8-yl)-1-methyl-6-oxo-1,6-dihydropyridazin-3-yl)-4-methylphenyl)-2-(2-fluoropropan-2-yl)isonicotinamide] and `Cc1ccc(NC(=O)c2ccnc(C(C)(F)F)c2)cc1-c1cc(N2C3CCC2COC3)c(=O)n(C)n1` [Example 670, N-(3-(5-(3-oxa-8-azabicyclo[3.2.1]octan-8-yl)-1-methyl-6-oxo-1,6-dihydropyridazin-3-yl)-4-methylphenyl)-2-(1,1-difluoroethyl)isonicotinamide] are within 1.5-fold of each other in IC50: 4.1 nM for the first, 2.8 nM for the second.

Compared with `Cc1ccc(NC(=O)c2ccnc(C(C)(C)C#N)c2)cc1-c1cc(N2C3CCC2COC3)c(=O)n(C)n1` [Example 669, N-(3-(5-(3-oxa-8-azabicyclo[3.2.1]octan-8-yl)-1-methyl-6-oxo-1,6-dihydropyridazin-3-yl)-4-methylphenyl)-2-(2-cyanopropan-2-yl)isonicotinamide], `Cc1ccc(NC(=O)c2ccnc(C(C)(C)C#N)c2)cc1-c1cc(C2CCOCC2)c(=O)n(C)n1` [Example 675, 2-(2-cyanopropan-2-yl)-N-(4-methyl-3-(1-methyl-6-oxo-5-(tetrahydro-2H-pyran-4-yl)-1,6-dihydropyridazin-3-yl)phenyl)isonicotinamide] is 2-fold lower in IC50: 10 nM for the first, 4.9 nM for the second. The second is the more potent here.
